Reference: ChEMBL document CHEMBL5252560 (Bioorg Med Chem Lett, 2023)

Assays:
Format in all cases: functional, cell-based
U-937 = test: Antiproliferative activity against human U-937 cells assessed as cell growth inhibition
Y79 = test: Antiproliferative activity against human Y79 cells assessed as cell growth inhibition
HepG2 = test: Antiproliferative activity against human HepG2 cells assessed as cell growth inhibition
A549 = test: Antiproliferative activity against human A549 cells assessed as cell growth inhibition

Row | IC50 (U-937) | IC50 (HepG2) | IC50 (A549) | Compound | IC50 (Y79)
1 | > 10 µM | > 10 µM | > 10 µM | COc1cc(C2=NOC(c3cc(OC)c(OC)c(OC)c3)C2)cc(OC)c1OC (stereo not drawn) | > 10 µM
2 | 0.953 µM | 3.42 µM | 2.79 µM | COc1cc(C2=NNC(c3ccc4[nH]ccc4c3)C2)cc(OC)c1OC (stereo not drawn) | > 10 µM
3 | > 10 µM | > 10 µM | > 10 µM | COc1cc(C2=NNC(c3cccc4c3OCO4)C2)cc(OC)c1OC (stereo not drawn) | > 10 µM
4 | > 10 µM | 6.3 µM | > 10 µM | COc1cc(C2=NOC(c3ccc4ccccc4c3)C2)cc(OC)c1OC (stereo not drawn) | > 10 µM
5 | > 10 µM | > 10 µM | > 10 µM | COc1cc(C2=NOC(c3csc4ccccc34)C2)cc(OC)c1OC (stereo not drawn) | > 10 µM
6 | 5.51 µM | > 10 µM | > 10 µM | COc1cc(C2=NOC(c3ccc4[nH]ccc4c3)C2)cc(OC)c1OC (stereo not drawn) | > 10 µM
7 | 0.475 µM | 0.466 µM | 0.445 µM | COc1cc(C(/C=C/c2ccc3ncccc3c2)=N/O)cc(OC)c1OC | > 10 µM
8 | 9.31 µM | > 10 µM | > 10 µM | COc1cc(C(/C=C/c2ccc3oc4ccccc4c3c2)=N/O)cc(OC)c1OC | > 10 µM
9 | 1.39 µM | 0.743 µM | > 10 µM | COc1cc(C(/C=C/c2ccc3sc4ccccc4c3c2)=N/O)cc(OC)c1OC | > 10 µM
10 | 7.36 µM | 6.35 µM | > 10 µM | COC(=O)c1ccc2c(C3CC(c4cc(OC)c(OC)c(OC)c4)=NN3)c[nH]c2c1 (stereo not drawn) | > 10 µM
11 | > 10 µM | > 10 µM | > 10 µM | COc1cc(C2=NNC(c3coc4ccccc34)C2)cc(OC)c1OC (stereo not drawn) | > 10 µM
12 | > 10 µM | > 10 µM | > 10 µM | COc1cc(C2=NOC(c3ccc4c(c3)CCO4)C2)cc(OC)c1OC (stereo not drawn) | > 10 µM
13 | > 10 µM | > 10 µM | > 10 µM | COc1cc(C2=NOC(c3ccc4oc5ccccc5c4c3)C2)cc(OC)c1OC (stereo not drawn) | > 10 µM
14 | > 10 µM | > 10 µM | > 10 µM | COc1cc(C2=NOC(c3ccc4occc4c3)C2)cc(OC)c1OC (stereo not drawn) | > 10 µM
15 | > 10 µM | > 10 µM | > 10 µM | COc1cc(C2=NOC(c3ccc4c(c3)OCCO4)C2)cc(OC)c1OC (stereo not drawn) | > 10 µM
16 | > 10 µM | > 10 µM | > 10 µM | COc1cc(C2=NNC(c3cc4ccccc4o3)C2)cc(OC)c1OC (stereo not drawn) | > 10 µM
17 | > 10 µM | > 10 µM | > 10 µM | COc1cc(C2=NNC(c3ccc4cc[nH]c4c3)C2)cc(OC)c1OC (stereo not drawn) | > 10 µM
18 | > 10 µM | > 10 µM | > 10 µM | COc1cc(C2=NNC(c3ccc4oc5ccccc5c4c3)C2)cc(OC)c1OC (stereo not drawn) | > 10 µM
19 | > 7.43 µM | 0.432 µM | > 10 µM | COc1cc(C(/C=C/c2ccc3ccccc3c2)=N/O)cc(OC)c1OC | > 10 µM
20 | > 10 µM | > 10 µM | > 10 µM | COc1cc(C2=NOC(c3cccc4c3OCO4)C2)cc(OC)c1OC (stereo not drawn) | > 10 µM
21 | 5.21 µM | 0.692 µM | 1.96 µM | CCn1c2ccccc2c2cc(/C=C/C(=N\O)c3cc(OC)c(OC)c(OC)c3)ccc21 | > 10 µM
22 | 0.284 µM | 0.493 µM | > 10 µM | COc1cc(C(/C=C/c2cc3ccccc3s2)=N/O)cc(OC)c1OC | > 10 µM
23 | > 10 µM | > 10 µM | > 10 µM | COc1cc(-c2cc(-c3ccc4ccccc4c3)on2)cc(OC)c1OC | > 10 µM
24 | 0.233 µM | 1.68 µM | > 10 µM | COc1cc(C2=NOC(c3ccc4sc5ccccc5c4c3)C2)cc(OC)c1OC (stereo not drawn) | > 10 µM

Row | IC50 (U-937) | IC50 (HepG2) | IC50 (A549) | Compound | IC50 (Y79)
25 | 1.95 µM | 2.32 µM | > 10 µM | CCn1c2ccccc2c2cc(C3CC(c4cc(OC)c(OC)c(OC)c4)=NN3)ccc21 (stereo not drawn) | > 10 µM
26 | > 10 µM | > 10 µM | > 10 µM | COc1cc(C2=NNC(c3ccc4c(c3)OCCO4)C2)cc(OC)c1OC (stereo not drawn) | > 10 µM
27 | > 10 µM | > 10 µM | > 10 µM | COc1cc(C2=NNC(c3ccc4occc4c3)C2)cc(OC)c1OC (stereo not drawn) | > 10 µM
28 | 6.29 µM | 8.33 µM | 5.9 µM | COc1cc(-c2cc(-c3ccc4c(c3)OCCO4)on2)cc(OC)c1OC | > 10 µM
29 | > 10 µM | > 10 µM | > 10 µM | COc1cc(C2=NNC(c3ccc4sc5ccccc5c4c3)C2)cc(OC)c1OC (stereo not drawn) | > 10 µM
30 | > 10 µM | > 10 µM | > 10 µM | COc1cc(C2=NOC(c3ccc4ncccc4c3)C2)cc(OC)c1OC (stereo not drawn) | > 10 µM
31 | > 10 µM | > 10 µM | > 10 µM | COc1cc(C2=NNC(c3ccc4ccccc4c3)C2)cc(OC)c1OC (stereo not drawn) | > 10 µM
32 | 1.24 µM | 4.56 µM | 3.41 µM | COc1cc(C2=NNC(c3c[nH]c4cc(Br)ccc34)C2)cc(OC)c1OC (stereo not drawn) | > 10 µM
33 | > 10 µM | > 10 µM | > 10 µM | COc1cc(C2=NNC(c3cccc4ccccc34)C2)cc(OC)c1OC (stereo not drawn) | > 10 µM
34 | > 10 µM | > 10 µM | > 10 µM | COc1cc(C2=NNC(c3cc4ccccc4s3)C2)cc(OC)c1OC (stereo not drawn) | > 10 µM
35 | > 10 µM | 6.93 µM | > 10 µM | COc1cc(C2=NNC(c3ccc4c(c3)CCO4)C2)cc(OC)c1OC (stereo not drawn) | > 10 µM
36 | > 10 µM | > 10 µM | > 10 µM | COc1cc(C2=NOC(c3cccc4ccccc34)C2)cc(OC)c1OC (stereo not drawn) | > 10 µM
37 | > 10 µM | > 10 µM | > 10 µM | COc1cc(-c2cc(-c3cccc4c3OCO4)on2)cc(OC)c1OC | > 10 µM
38 | > 10 µM | > 10 µM | > 10 µM | COc1cc(C2=NNC(c3ccc4ncccc4c3)C2)cc(OC)c1OC (stereo not drawn) | > 10 µM
39 | > 10 µM | > 10 µM | > 10 µM | COc1cc(C2=NOC(c3cc4ccccc4o3)C2)cc(OC)c1OC (stereo not drawn) | > 10 µM
40 | 0.873 µM | 0.179 µM | > 10 µM | COc1cc(C(/C=C/c2ccc3occc3c2)=N/O)cc(OC)c1OC | 0.371 µM
41 | > 10 µM | > 10 µM | > 10 µM | COC(=O)c1ccc2c(C3CC(c4cc(OC)c(OC)c(OC)c4)=NO3)c[nH]c2c1 (stereo not drawn) | > 10 µM
42 | 0.919 µM | > 10 µM | > 10 µM | COc1cc(-c2cc(-c3cccc4ccccc34)on2)cc(OC)c1OC | > 10 µM
43 | > 10 µM | > 10 µM | > 10 µM | COc1cc(C2=NNC(c3csc4ccccc34)C2)cc(OC)c1OC (stereo not drawn) | > 10 µM
44 | 1.56 µM | 4.37 µM | > 10 µM | CCn1c2ccccc2c2cc(C3CC(c4cc(OC)c(OC)c(OC)c4)=NO3)ccc21 (stereo not drawn) | > 10 µM
45 | 3.38 µM | 5.61 µM | > 10 µM | COc1cc(C2=NOC(c3c[nH]c4ccccc34)C2)cc(OC)c1OC (stereo not drawn) | > 10 µM
46 | 10 µM | 0.601 µM | > 10 µM | COc1cc(C(/C=C/c2cccc3ccccc23)=N/O)cc(OC)c1OC | > 10 µM
47 | 3.49 µM | 4.35 µM | 7.13 µM | COc1cc(C2=NNC(c3c[nH]c4ccccc34)C2)cc(OC)c1OC (stereo not drawn) | > 10 µM
